# According to patent US8871929B2, “Fused-imidazoyl compounds useful as antimicrobial agents” (Merck Sharp & Dohme Corp., priority 2010, dated 2014):
# Tested on: Staphylococcus aureus ATCC29213
# Test: Susceptibility testing (MIC determination), broth microdilution
# Type: cell-based
# Details: Mueller Hinton broth, 96-well plate, overnight incubation at 35° C., read-out: MIC Staph. aureus ATCC-29213
# Method: Compounds useful in the method of the invention were investigated for their utility as antimicrobial agents in the following assay. Susceptibility testing (MIC determinations) was performed using the standard broth microdilution methodology precisely as described in the Clinical Laboratory Standards Institute Document M7-A6; Methods for Dilution Antimicrobial Susceptibility Tests for Bacteria That Grow Aerobically; […] To perform the test, a series of 0.1 ml media in a 96-well plate is prepared with Mueller Hinton broth to which various concentrations of the test compound are added. The media are then inoculated with a standardized suspension of the test organism, Staphylococcus aureus ATCC29213. After overnight incubation at 35° C., the tests are examined and the minimal inhibitory concentration (MIC) is determined. MIC is defined as the lowest concentration of an antimicrobial agent that prevents visible growth of a microorganism in the broth microdilution susceptibility test
compound,measurement,value
CCc1ccc(-c2nc3cnccn3c2NCC(=O)N2CCN(c3c(Cl)cccc3Cl)CC2)cc1 [Compound 70],MIC,4 mg/L
